According to patent US7973036B2, “2-methyl-5-imino-benzo[D][1 ,3]oxazin[5-B]pyrazole compound, preparation and use thereof” (Qingdao Huanghai Pharmaceutical Co., Ltd, priority 2008, dated 2011):
“Also recorded” adds a separate entry of the source.

Key:
[1] = Anti-DPPH free radical test (spectrophotometry at 517 nm); assay type: biochemical; details: for DPPH free radical scavenged by one molecular of compound / DPPH free radical scavenging ability E, one value per sample (mean of the five concentrations) / DPPH free radical scavenging ability V / DPPH free radical scavenging ability E / DPPH free radical scavenging ability, comparison between samples: 30 min
Text: Anti-DPPH Free Radical Test
2,2-diphenyl-1-picrylhydrazyl (DPPH) free radical spectrophotometry is a simple method for screening antioxidants, the principle of which is using the characteristic absorption peak of DPPH solution at 517 nm. When free radical scavengers existed, single electron pairing between free radical scavenger and DPPH allowed the absorption of DPPH disappeared, and its decoloring degree and accepted electron number present as quantitative relation, and the antioxidant activity of samples can be evaluated through the amount of cleared DPPH, so the spectrophotometry can be used for quantitative analysis.
DPPH was accurately weighed and placed in a volumetric flask, and diluted to 100 ml with 95% ethanol. The absorbance (A) of DPPH was measured at 517 nm.
DPPH standard curve was shown in FIG. 1, the linear equation of which was as follows: y=0.219x−0.0285; r=0.9994.
DPPH was accurately weighed and placed in a 100 ml volumetric flask, and diluted to 100 ml with 95% ethanol to produce the DPPH solution.
Preparation of Test Drug Solution: the Test Drug was Accurately Weighed and Placed in a 100 ml volumetric flask, dissolved with 20 ml of 95% ethanol, adjusted to pH 7.5 and diluted to 100 ml with 95% ethanol.
5.0 ml of DPPH solution and 2.0 ml test drug solution were taken and placed in a 10 ml volumetric flask, fully shaken at room temperature for a certain time followed by determination of absorption value (A) at 517 nm.
Formula for calculating DPPH free radical scavenging ability of test drug, E (mgDPPH/mg):
Formula for calculating DPPH free radical scavenging ability of test drug, V (mmolDPPH/mmol): […]

[2] = tested on: cerebral ischemia reperfusion model of middle cerebral artery occlusion (MCAO); assay: Cerebral ischemia reperfusion model of middle cerebral artery occlusion (MCAO), suture method; assay type: in vivo, SD rats; details: Nimodipine 0.4 mg/kg, X ± SD
Experimental: Cerebral ischemia reperfusion model of middle cerebral artery occlusion (MCAO) was established in SD rats using the suture method of internal carotid artery. Test rats were administrated once 0.5 hours after ischemia reperfusion, then once every 2 hours, for totally three times. Neurological defect symptoms were observed 48 hours after cerebral ischemia.

[3] = test drug C 0.152 (Edaravone), 0.153 (Compound 1, 2), 0.159 (Compound 3) mg/100 ml
[4] = test drug C 0.304 (Edaravone), 0.305 (Compound 1, 2), 0.318 (Compound 3) mg/100 ml
[5] = test drug C 0.608 (Edaravone), 0.610 (Compound 1, 2), 0.635 (Compound 3) mg/100 ml
[6] = test drug C 1.215 (Edaravone), 1.220 (Compound 1, 2), 1.270 (Compound 3) mg/100 ml
[7] = test drug C 2.430 (Edaravone), 2.440 (Compound 1, 2), 2.540 (Compound 3) mg/100 ml

CC1=NN(c2ccccc2)C(=O)C1 [Edaravone, edaravone, reference compound]
DPPH free radical scavenged by one molecular of compound [1]: 1.657 molecular of DPPH free radical
DPPH free radical scavenging ability E, one value per sample (mean of the five concentrations) [1]: 3.752 mgDPPH/mg
DPPH free radical scavenging ability V [1]: 1.657 mmolDPPH/mmol
DPPH free radical scavenging ability E [1, 3]: 3.222 mgDPPH/mg
DPPH free radical scavenging ability E [1, 4]: 3.195 mgDPPH/mg
DPPH free radical scavenging ability E [1, 5]: 3.322 mgDPPH/mg
DPPH free radical scavenging ability E [1, 6]: 4.785 mgDPPH/mg
DPPH free radical scavenging ability E [1, 7]: 4.237 mgDPPH/mg

COCCOC(=O)C1=C(C)NC(C)=C(C(=O)OC(C)C)C1c1cccc([N+](=O)[O-])c1 (centres unmarked) [Nimodipine, nimodipine, reference compound]
Variation value of water content in brain (%) ([2]; n=7): 1.6 ± 0.59 %
brain tissue MDA content ([2]; n=7): 7.6 ± 1.28 nmol/mgprot
brain tissue SOD activity ([2]; n=7): 114.8 ± 16.4 U/mgprot
Scores of neurological defect symptoms ([2]; Table 4 series, three administrations, 48 hours after cerebral ischemia, n=10): 1.2 ± 0.41
Cerebral infarction area (%) ([2]; Table 5, three administrations, n=10): 6.7 ± 6.30^#& %
Cerebral infarction area (%) (table title: brain injury) ([2]; Table 6, brain injury, three administrations, n=10): 12.8 ± 12.09^#& %
Scores of neurological defect symptoms ([2]; Table 7 series, n=7): 1.3 ± 0.86

Cc1cc(=O)n(-c2ccccc2C#N)[nH]1 [Compound 3, 1-(2-cyanophenyl)-3-methylpyrazol-5-one]
DPPH free radical scavenged by one molecular of compound [1]: 1.942 molecular of DPPH free radical
DPPH free radical scavenging ability E, one value per sample (mean of the five concentrations) [1]: 3.510 mgDPPH/mg
DPPH free radical scavenging ability V [1]: 1.942 mmolDPPH/mmol
DPPH free radical scavenging ability, comparison between samples [1]: the largest; also recorded: slightly stronger than Edaravone
DPPH free radical scavenging ability E [1, 3]: 3.067 mgDPPH/mg
DPPH free radical scavenging ability E [1, 4]: 3.215 mgDPPH/mg
DPPH free radical scavenging ability E [1, 5]: 2.770 mgDPPH/mg
DPPH free radical scavenging ability E [1, 6]: 4.032 mgDPPH/mg
DPPH free radical scavenging ability E [1, 7]: 4.464 mgDPPH/mg

2-methyl-benzo[d][1,3]oxazin[5-b]pyrazole-5-one [Compound 1]
DPPH free radical scavenging ability with the reaction time ([1]; 30-150 min): gradually increased
Hydrolysis in the reaction liquid with the reaction time ([1]; 95% ethanol, pH 7.5, room temperature, 30-150 min): gradually hydrolyzed into Compound 3
DPPH free radical scavenging ability E, one value per sample (mean of the five concentrations) [1]: 1.687 mgDPPH/mg
DPPH free radical scavenging ability V [1]: 0.856 mmolDPPH/mmol
DPPH free radical scavenging ability, comparison between samples [1]: one-eighth of Compound 3
DPPH free radical scavenging ability E [1, 3]: 1.650 mgDPPH/mg
DPPH free radical scavenging ability E [1, 4]: 1.481 mgDPPH/mg
DPPH free radical scavenging ability E [1, 5]: 1.252 mgDPPH/mg
DPPH free radical scavenging ability E [1, 6]: 2.262 mgDPPH/mg
DPPH free radical scavenging ability E [1, 7]: 1.792 mgDPPH/mg
DPPH free radical scavenging ability, comparison with Compound 3 ([1]; at 150 min): equivalent with Compound 3
